Source: article PMC5913406 (British Journal of Pharmacology, 2018)

What was measured:
[1] = molecular target: T1, human adenosine A1 receptor (Homo sapiens, UniProt P30542); assay: Two‐state competition association assay with [^3H]‐NECA; assay type: binding
T1 sequence (P30542 1-326): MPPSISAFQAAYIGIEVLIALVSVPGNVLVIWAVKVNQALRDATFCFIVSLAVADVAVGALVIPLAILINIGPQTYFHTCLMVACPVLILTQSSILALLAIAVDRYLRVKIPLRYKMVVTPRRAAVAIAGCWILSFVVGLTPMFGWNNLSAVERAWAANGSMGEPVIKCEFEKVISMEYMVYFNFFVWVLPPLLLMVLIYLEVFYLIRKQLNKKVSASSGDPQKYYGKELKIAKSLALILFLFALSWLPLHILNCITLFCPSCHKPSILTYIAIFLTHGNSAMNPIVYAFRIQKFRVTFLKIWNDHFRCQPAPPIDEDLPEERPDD

[2] = tested on: A1 receptor; conditions: 25°C; ref Guo et al., 2013; cited from earlier work
[3] = molecular target: T1, human adenosine A1 receptor; assay: Competition binding assay: displacement of [^3H]‐NECA on CHOhA1R cell membranes

k6 (dissociation rate constant of competitor at R1 state) ([1]; two‐state model, 30°C, mean ± SEM of five experiments) [min⁻¹]	Kb ([1]; KB,2, KB,2 = k8/k7, R2 state, 30°C, DPCPX and LUF5962 values ambiguous) [nM]	kon ([1]; read-out: k5 (association rate constant of competitor at R1 state)) [M⁻¹ s⁻¹]	koff ([1]; read-out: k6 (dissociation rate constant of competitor at R1 state)) [s⁻¹]	IC50 [3] [nM]	Compound	association rate [2] [M⁻¹ s⁻¹]
0.78 ± 1.42	–	–	–	–	CCCn1c(=O)c2[nH]c(C3CCCC3)nc2n(CCC)c1=O [DPCPX, 1,3‐dipropyl‐8‐cyclopentylxanthine]	3.33e+06
–	15	167000	0.00383	74.1	c1ccc(-c2nc(-c3ccccc3)c3nc(C4CCCC4)[nH]c3n2)cc1 [LUF5962, 8‐cyclopentyl‐2,6‐diphenyl‐9H‐purine]	2e+06
